# Measured values from US7282348B2, “Kit for measuring cytotoxicity of a test agent” (Promega Corporation, priority 2002, dated 2007).
# Test system: L929 cells
# Assay: Cytotoxicity of TNFα measured by LDH release (resazurin/diaphorase fluorescence)
# Type: cell-based, mouse
# Conditions: 20 hours incubation, in the presence of actinomycin D 1 μg/ml
# Description: A reagent solution was prepared combining a lyophilized substrate mixture with the assay buffer containing resazurin, and all of the ingredients required to measure the release of LDH from dead cells. The buffer solvent used to reconstitute the lyophilized substrate mixture was designed so that when it is used to reconstitute the mixture, the resulting solution has an osmolarity that is compatible with living cells. That is, the resulting solution was isotonic with the cells. When used to reconstitute the lyophilized substrate mix, the reagent solution contained:
# L929 cells were cultured in F-12/DME with 10% FBS and serially-diluted in a microtiter plate to yield duplicate wells containing approximately 0, 1562, 3125, 6250, 12,500, 25,000, and 50,000 cells per well, in 90 μl total volume. Cells were incubated at 37° C. for sufficient time to allow attachment (about 1.5 hours). […] The fluorescence of each well was then measured (excitation 560 nm, emission 590 nm).
# L929 cells (2000 cells/well) were prepared using a 384-well tissue culture plate in F-12/DME medium supplemented with 10% horse serum. […] Fluorescence was then determined at 560 nm excitation and 590 nm emission.
substance,measurement,setting,value
TNFα,concentration at or above which fluorescence remained essentially constant (all of the cells lysed),,about 0.125 ng/ml
same,"observed fluorescence (560 nm excitation, 590 nm emission) as a measure of cell lysis",TNF concentrations from zero to about 0.125 ng/ml,rose in a TNFα dose-dependent fashion
